# Reference: US5679708A, “Epoxysuccinic acid derivatives, their production and use” (Takeda Chemical Industries, Ltd., priority 1994, dated 1997)
# Where a name gives a salt, the structure may show the parent alone.
# Experiments:
# Toxicity study = type: in vivo; settings: rats, orally, 300 mg/kg
# Procedure: Compound 1 caused no death in rats when it was orally administered at 300 mg/kg.
# [1] = molecular target: T1, human recombinant cathepsin L (Homo sapiens, UniProt P07711); assay: Determination of cathepsin L inhibitory activity; type: biochemical; settings: human recombinant cathepsin L 1 ng; 20 μM Z-Phe-Arg-7MCA; pH 5.5; 37° C., 20 minutes; read-out: Inhibitory activity potency IC50 (Cathepsin L) (converted)
# T1 construct: they were identified as a precursor of human cathepsin L and a product processed therefrom; made in house; host or cells: mouse myeloma Sp2/0 cells stably transformed with pTBN-HCLneo (Sp-HCL26); secreted, purified from serum-free culture supernatant
# Procedure: (a) Determination of cathepsin L inhibitory activity
# To 75 μl of a reaction mixture containing 1 ng of human recombinant cathepsin L (those produced in Reference Examples 1 through 7 below were employed), 2 μM of dithiothreitol (hereinafter abbreviated as DTT), 1 mM of ethylenediaminetetraacetate disodium salt, 0.1M of a sodium acetate buffer solution (pH 5.5) and various concentrations of the sample, 25 μl of 20 μM benzyloxycarbonyl-L-phenylalanyl-L-arginine-4-methylcoumaryl-7-amide (hereinafter simply referred to as Z-Phe-Arg-7MCA, manufactured by Peptide Institute, Inc.) was added to initiate the reaction, and the reaction mixture was incubated at 37° C. for 20 minutes, followed by addition of 100 μl of a solution containing 100 mM of sodium monochloroacetate to suspend the reaction. The amount of liberated 4-methyl-7-aminocoumarin was determined at an excitation wavelength of 365 nm and a fluorescence wavelength of 450 nm, using a fluorophotometer (FCA: manufactured by Baxter Labs). The sample concentration required to cause 50% inhibition was expressed as the IC50 value, with the fluorescence value obtained from the same reaction in the absence of the sample taken as 100%.
# [2] = system: bone resorption as enhanced by PTH (parathyroid hormone); assay: Determination of bone resorption suppressive activity (PTH-enhanced, isolated mouse femur culture); type: cell-based, female BALB/c mice; settings: 168 h, test compound 10 μg/ml, PTH 1 μM, 7 days culture, total calcium content, 100x(Cp-Cs)/(Cp-Cc)
# Procedure: Further, the compound (I) of this invention or salts thereof have an excellent activity of suppressing bone resorption. Their suppressive action against bone resorption as enhanced by PTH (parathyroid hormone) was determined by the method described below. The results are shown in [Table 3].
# Determination of bone resorption suppressive activity
# Femurs were aseptically isolated from female BALB/c mice at 8-10 weeks of age. After the bone marrow cavity was washed with a Ham's F-12 medium containing 10% (w/w) thermally inactivated fetal calf serum, 100 unit/ml penicillin G and 100 unit/ml streptomycin (hereinafter referred to as culture broth), each femur was added to 1 ml of the culture broth and precultured for 3 hours at 37° C. in the presence of 5% carbon dioxide gas and 95% air. Each bone was transferred to 1 ml of the culture broth supplemented with PTH (produced by Peptide Institute, Inc., final concentration of 1 μM) and the test compound (final concentration 10 μg/ml (and cultured for 7 more days, after which the total calcium content in the culture broth was determined using Calcium E-Test Wako (manufactured by Wako Pure Chemical Industries, Ltd.). The bone resorption suppressive activity of the test compound was calculated using the following equation:
# Bone resorption suppressive activity(%)=100x(Cp-Cs)/(Cp-Cc)
# Cc: Total calcium content in the culture broth containing neither PTH nor test compound
# Cp: Total calcium content in the culture broth containing PTH
# Cs: Total calcium content in the culture broth containing both PTH and test compound
# cathepsin B = molecular target: T2, cathepsin B (Homo sapiens, UniProt P07858); assay: Determination of cathepsin B inhibitory activity; type: biochemical; settings: cathepsin B 30 ng (Sigma); 20 μM Z-Phe-Arg-7MCA; pH 5.5; 37° C., 20 minutes; read-out: Inhibitory activity potency IC50 (TABLE 2, head printed Cathepsin L) (converted)
# T2 construct: purchased Sigma Chemical Co
# Procedure: (b) Determination of cathepsin B inhibitory activity
# To 75 μl of a reaction mixture containing 30 ng of cathepsin B (produced by Sigma Chemical Co.), 2 μM DTT, 1 mM ethylenediaminetetraacetate disodium salt, 0.1M sodium acetate buffer (pH 5.5) and various concentrations of the sample, 25 μl of 20 μM Z-Phe-Arg-7MCA was added to initiate the reaction, and the reaction mixture was incubated at 37° C. for 20 minutes, followed by addition of 100 μl of a solution containing 100 mM sodium monochloroacetate to suspend the reaction. The amount of liberated 4-methyl-7-aminocoumarin was determined at an excitation wavelength of 365 nm and a fluorescence wavelength of 450 nm, using a fluorophotometer. The sample concentration required to cause 50% inhibition was expressed as the IC50 value, with the fluorescence value obtained from the same reaction in the absence of the sample taken as 100%.
# T1 sequence (P07711 114-333): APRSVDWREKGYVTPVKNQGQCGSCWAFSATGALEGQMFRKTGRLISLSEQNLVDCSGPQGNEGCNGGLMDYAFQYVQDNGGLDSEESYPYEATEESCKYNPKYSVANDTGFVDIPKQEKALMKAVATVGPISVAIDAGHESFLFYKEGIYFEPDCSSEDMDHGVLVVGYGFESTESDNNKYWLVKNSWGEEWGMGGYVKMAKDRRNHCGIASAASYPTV
SMILES,death after oral administration (Toxicity study),IC50 [1] [nM],inhibition at 10 µg/mL [2] [%],IC50 (cathepsin B) [nM]
"CCOC(=O)[C@H]1O[C@@H]1C(=O)N[C@@H](Cc1ccccc1)C(=O)NCCCOC [Compound 1, N-[N-[(2S,3S)-3-trans-ethoxycarbonyloxysirane-2-carbonyl]-L-phenylalanyl]-1-amino-3-methoxypropane]",no death,,,
"COCCCNC(=O)[C@H](Cc1ccccc1)NC(=O)[C@H]1O[C@@H]1C(=O)O [Compound 2, N-[N-[(2S,3S)-3-trans-carboxyoxirane-2-carbonyl]-L-phenylalanyl]-1-amino-3-methoxypropane monosodium salt]",,8.56,,
"O=C(NCCCO)[C@H](Cc1ccccc1)NC(=O)[C@H]1O[C@@H]1C(=O)O [Compound 4, N-[N-[(2S,3S)-3-trans-carboxyoxirane-2-carbonyl]-L-phenylalanyl]-3-amino-1-propanol monosodium salt]",,,176,
"CC(=O)OCCCNC(=O)[C@H](Cc1ccccc1)NC(=O)[C@H]1O[C@@H]1C(=O)O [Compound 6, N-[N-[(2S,3S)-3-trans-carboxyoxirane-2-carbonyl]-L-phenylalanyl]-3-amino-acetoxypropane monosodium salt]",,13.2,144,
"CSCCCNC(=O)[C@H](Cc1ccccc1)NC(=O)[C@H]1O[C@@H]1C(=O)O [Compound 8, N-[N-[(2S,3S)-3-trans-carboxyoxirane-2-carbonyl]-L-phenylalanyl]-1-amino-3-methylthiopropane monosodium salt]",,8.19,142,5.46
